Values quoted from earlier work in patent US9629360B2, “Water-based pesticidal suspension” (priority 2010, dated 2017).
In brackets after ≈: the same amount, converted by molar mass.

Conditions: 20° C.

In the case of `COP(=O)(OC)SCn1c(=O)oc2cc(Cl)cnc21` [azamethiphos], the aqueous solubility is given as 1100 µg/mL (≈ 3.39 mM).
For `Cc1nc(N(C)C)nc(OC(=O)N(C)C)c1C` [pirimicarb], the aqueous solubility is given as 3100 µg/mL (≈ 13 mM).
